The values that follow come from patent US9328092B2, “Acrylamide compounds as histamine H3 receptor ligands” (Suven Life Sciences Limited, priority 2012, dated 2016).

Each structure is given as a SMILES string.

Series [1] can be described thus: Rodent brain penetration study. As to conditions: male, Wistar, rat, brain homogenate / whole blood, po, 3 mg/kg, Wister rats/Male, Per-oral, 1 h post dose, read-out: Brain Penetration @ 1 h post dose (Cbrain/Cblood). The series is classed as in vivo, Male Wistar rats. The procedure: Male Wistar rats (230-280 grams) were used as experimental animals. Three animals were housed in each cage. Animals were given water and food ad libitum throughout the experiment and maintained on a 12 hours light/dark cycle. Brain penetration was determined in discrete manner in rats. One day prior to dosing day, male wistar rats (225-250 grams) were acclimatized. After acclimatization, the rats were grouped according to the weight in each group, 3 animals were kept in individual cage and allowed free access to food and water. At each time point (05, 1, and 2 hrs) n=3 animals were used. The compounds of formula (I) were dissolved in water and administered orally at (free base) 3 mg/kg. Blood samples were removed via, cardiac puncture by using light ether anesthesia the animals were sacrificed to collect brain tissue. Brain samples were homogenized and stored frozen at −20° C. until analysis. The concentrations of the compounds of formula (I) in blood and brain were determined using LC-MS/MS method. The compounds of formula (I) were quantified in blood and brain homogenate by validated LC-MS/MS method using acetonitrile precipitation technique. The compounds of formula (I) were quantified in the calibration range of 1-1000 ng/mL in blood and brain homogenate. Study samples were analyzed using calibration samples in the batch and quality control samples spread across the batch. Extents of brain to blood ratios were calculated (Cbrain/Cblood).

The target of series [2] is Human or Rat Histamine H3 Receptor (UniProt Q9Y5N1). Put plainly: Binding assay for human or rat histamine H3 receptor ([3H] R-α-methylhistamine displacement). As to conditions: [3H] R-α-methylhistamine 3.0 nM; rat brain frontal cortex or recombinant human receptor in CHO cells (source for table not stated). The procedure:
Binding and Functional Assays for Human or Rat Histamine H3 Receptor
Compounds can be evaluated according to the following procedures.
• Receptor source: Rat brain frontal cortex or recombinant human cDNA expressed in CHO cells • Radioligand: [^3H] R-α-methylhistamine • Final ligand concentration—[3.0 nM] • Non-specific determinant: R-α-methylhistamine (100 μM) • Reference compound: R-α-methylhistamine • Positive control: R-α-methylhistamine Incubation Conditions:
Increasing concentrations of test compounds or standard were incubated with membrane receptors and radioligand in 5 mM MgCl2 and 50 mM TRIS-HCl (pH 7.4) for 60 minutes at room temperature. The reaction was terminated by rapid vacuum filtration onto the glass fiber filters. Radioactivity trapped onto the filters was determined and compared to the control values in order to ascertain any interactions of the test compound(s) with either cloned human or rat receptor binding site.

Series [3] can be described thus: Rodent pharmacokinetic study. It is filed as in vivo. The conditions noted are these: rat, whole blood, Wistar rats/Male; for AUC(0-t) / Cmax / Tmax / half-life: blood. The procedure:
Male Wistar rats (230-280 grams) were used as experimental animals. Three to five animals were housed in each cage. One day prior to dosing day, male wistar rats (225-250 grams) were anesthetized with isoflurane for surgical placement of jugular vein catheter. Animals were kept fasted over night and maintained on a 12 hours light/dark cycle. Three rats were dosed with compounds of formula (I) orally (3 mg/Kg) and intravenously (1 mg/kg) in two separate set of animals (n=3 rats/group). At each time point, blood was collected by jugular vein. Blood was stored frozen at […] until analysis. The concentrations of the compounds of formula (I) in blood were determined using LC-MS/MS method. Schedule time points: Pre dose 0.08 (only for i.v.) 0.25, 0.5, 1, 2, 4, 6, 8, and 24 hours after dosing (n=3). The compounds of formula (I) were quantified in blood by validated LC-MS/MS method using acetonitrile precipitation technique. The compounds of formula (I) were quantified in the calibration range of 1-1000 ng/mL in blood. Study samples were analyzed using calibration samples in the batch and quality control samples spread across the batch. Pharmacokinetic parameters Cmax, Tmax, AUCt, T1/2 and Bioavailability were calculated by non-compartmental model using software Pheonix WinNonlin version 6.0.1.

A further series has as its system Male Wister rats. Put plainly: Object recognition task model. It is filed as in vivo. The conditions noted are these: 3 mg/kg, p.o. On the procedure: The cognition enhancing properties of compounds of this invention were estimated using a model of animal cognition: the object recognition task model.
Male Wister rats (230-280 grams) were used as experimental animals. Four animals were housed in each cage. Animals were kept on 20% food deprivation before one day and given water ad libitum throughout the experiment and maintained on a 12 hours light/dark cycle. Also the rats were habituated to individual arenas for 1 hour in the absence of any objects.
One group of 12 rats received vehicle (1 mL/Kg) orally and another set of animals received compound of the formula (I) either orally or i.p., before one hour of the familiar (T1) and choice trial (T2).
The experiment was carried out in a 50×50×50 cm open field made up of acrylic. In the familiarization phase, (T1), the rats were placed individually in the open field for 3 minutes, in which two identical objects (plastic bottles, 12.5 cm height×5.5 cm diameter) covered in yellow masking tape alone (a1 and a2) were positioned in two adjacent corners, 10 cm. from the walls. After 24 hours of the (T1) trial for long-term memory test, the same rats were placed in the same arena as they were placed in T1 trial. Choice phase (T2) rats were allowed to explore the open field for 3 minutes in presence of one familiar object (a3) and one novel object (b) (Amber color glass bottle, 12 cm high and 5 cm in diameter). Familiar objects presented similar textures, colors and sizes. During the T1 and T2 trial, explorations of each object (defined as sniffing, licking, chewing or having moving vibrissae whilst directing the nose towards the object at a distance of less than 1 cm) were recorded separately by stopwatch. Sitting on an object was not regarded as exploratory activity, however, it was rarely observed.
T1 is the total time spent exploring the familiar objects (a1+a2).
T2 is the total time spent exploring the familiar object and novel object (a3+b).
The object recognition test was performed as described by Ennaceur, A., Delacour, J., 1988, A new one-trial test for neurobiological studies of memory in rats—Behavioural data, Behav. Brain Res., 31, 47-59.

One may read the Ki as the dissociation constant of the complex between target and ligand, obtained from inhibition or displacement. Broadly, the AUC(0-t) is exposure summed from dosing to a finite time, without extrapolation to infinity. The low end stands for low exposure, the high end for high exposure. The term Cmax denotes the maximum level reached in the sampled fluid or tissue. As usually defined, the Tmax is the time at which the peak concentration occurs. As usually defined, the half-life is the time in which the quantity being followed falls by half. A low value points to rapid decline. In general, bioavailability refers to dose-corrected exposure relative to a reference, in per cent. The low end stands for poor availability, the high end for good availability. As to `O=C(C=Cc1ccc(OC2CCN(C3CCC3)CC2)nc1)N1CCOCC1.O=C(O)C(O)C(O)C(=O)O` [Example 5, 3-[2-(1-Cyclobutylpiperidin-4-yloxy)pyridin-5-yl]-1-(morpholin-4-yl)prop-2-ene-1-one L(+)-Tartarate salt], in series [1], the Kp at 1 h was 0.92. The Ki in series [2] amounted to 7.9 nM. Also, in series [3] (1 mg/kg, Intravenous), the AUC(0-t) stood at 173 ± 13 ng·h/mL, the Cmax came out at 220 ± 10 ng/mL, the Tmax turned out to be 4.8 min and the half-life is 36 ± 12 min. For the same molecule, the bioavailability in series [3] (3 mg/kg Per-Oral vs 1 mg/kg Intravenous) was 35 ± 5%. Further, in series [3] (3 mg/kg, Per-Oral), the AUC(0-t) amounted to 184 ± 25 ng·h/mL, the Cmax is 128 ± 6 ng/mL, the Tmax came out at 25.2 ± 8.4 min and the half-life is 66 ± 18 min. For the same molecule, the Inference entry in the series with Male Wister rats was “Active”. Besides, in the series with Male Wister rats (choice trial T2), the “Exploration time mean ± S.E.M, Familiar object” value amounted to 9.64 ± 2.22 s and the “Exploration time mean ± S.E.M, Novel object” value turned out to be 15.53 ± 2.36 s.
